As usually defined, the Cmax is the maximum level reached in the sampled fluid or tissue.

The text below walks through data of patent US20240025905A1, “SALTS OF DIHYDROPYRIMIDINE DERIVATIVES, COMPLEXES AND USES THEREOF IN MEDICINE” (SUNSHINE LAKE PHARMA CO., LTD., priority 2020, published 2024).

Where two headings read alike, the source gives them in different places.

Data set [1] in a line: Pharmacokinetic evaluation of experimental animals after oral administration. The class given is in vivo, Beagle dogs. The settings on record: for AUC0-t / Cmax: beagle dogs, oral via capsules, 10 mg/kg; for absorption in the body / in animals (in words): in vivo. On the procedure: Blood samples were taken at 0.25, 0.5, 1, 2, 4, 6, 8 and 24 hours from forelimb vein after the administration, and collected in anticoagulation tube with EDTA-K2. After liquid-liquid extraction, the blood samples were quantitatively analyzed on a triple quadrupole tandem mass spectrometer using multiple reactive ion monitoring (MRM). Pharmacokinetic parameters (AUC0-t and Cmax) were calculated using a noncompartmental method by WinNonLin 6.3 software.

A short description of data set [2]: Stability test (high temperature, high humidity and light tests). The class given is physicochemical. On the procedure:
High temperature test: An appropriate amount of the test product was added into a flat weighing bottle and spread into a thin layer with thickness ≤5 mm. The bottle was placed at 60° C. or 40° C. for 10 days. Samples were taken at the 5th and 10th days to check the appearance, related substances and purity.
High humidity test: An appropriate amount of the test product was added into a flat weighing bottle and spread into a thin layer with thickness 5 mm. The bottle was placed at 25° C. and a relative humidity of 90%±5% for 10 days. Samples were taken at the 5th and 10th days to check the appearance, related substances and purity. At the same time, the weight of the test product before and after the test were accurately weighed to investigate the moisture absorption and deliquescence performance of the test product. Light test: An appropriate amount of the test product was added into a flat weighing bottle and spread into a thin layer with thickness ≤5 mm. The bottle was opened and placed in a light box (with UV) at the illuminance 4500±500 lx, UV light≥0.7 w/m^2 for 10 days. Samples were taken at the 5th and 10th days to check the appearance, related substances and purity.

Data set [3] in a line: Experimental research on hygroscopicity. The class given is physicochemical. The conditions noted are these: 25° C.±1° C., relative humidity 90%±2%, 24 hours. The protocol:
A dry stoppered glass weighing bottle (outer diameter was 50 mm, height was 15 mm) was placed in a suitable constant temperature dryer (a saturated solution of ammonium chloride or ammonium sulfate was placed at the bottom, the relative humidity was within 90%±2%) at 25° C.±1° C. the day before, and the weighing bottle was precisely weighed (m1). An appropriate amount of the test product was spread flat in the above weighing bottle. The thickness of the test product was generally about 1 mm, and the weighing bottle was precisely weighed (m2). The weighing bottle was opened and placed for 24 hours under the above constant temperature and humidity conditions with the bottle cap. The weighing bottle was closed and precisely weighed (m3), and the weight gain percentage (%) was calculated. Testing method: According to Ph.

For a further data set, the system named is HBV. The settings on record: PCT application WO2019076310A1; cited from earlier work.
Setting [4] is: High humidity (90% RH), 25° C., 5 days.
[5] abbreviates: High humidity (90% RH), 25° C., 10 days.
The mark [6] stands for this setting: High temperature (60° C.), 5 days.
The mark [7] stands for this setting: High temperature (60° C.), 10 days.
Where [8] appears, read: Light (4500±500 lx, UV light≥0.7 w/m^2), 5 days.
The mark [9] stands for this setting: Light (4500±500 lx, UV light≥0.7 w/m^2), 10 days.

Molecule `COC(=O)C1=C(CN2CCN3C(=O)N(c4ccc(CCC(=O)O)cc4F)C[C@@H]3C2)NC(c2nccs2)=N[C@H]1c1ccc(F)cc1Cl.N=C(N)NCCC[C@H](N)C(=O)O` [3-(4-((S)-7-(((R)-6-(2-chloro-4-fluorophenyl)-5-(methoxycarbonyl)-2-(thiazol-2-yl)-3,6-dihydropyrimidin-4-yl)methyl)-3-oxohexahydroimidazo[1,5-a]pyrazine-2(3H)-yl)-3-fluorophenyl)prop ionic acid L-arginine salt crystal form A] yielded an AUC0-t in data set [1] of 13100 ng·h/mL. The same molecule displayed a peak concentration (Cmax) in data set [1] of 6810 ng/mL. Moreover, the “absorption in the body / in animals (in words)” value in data set [1] (dog) is given as “better absorbed”. In addition, the “exposure / pharmacokinetic properties (in words)” value in data set [1] (experimental animals, oral) is “higher exposure”. For the same molecule, the “Purity (%)” value is on record as 99.52% in data set [2] (0 days); 99.38% in data set [2] (setting [4]); 99.39% in data set [2] (setting [5]); 99.46% in data set [2] (setting [6]); 99.42% in data set [2] (setting [7]); 99.10% in data set [2] (setting [8]). In data set [2] (setting [9]), the “Purity (%)” value amounted to 98.72%. For the same molecule, the “stability (in words)” value in data set [2] (high temperature, high humidity or light conditions for 10 days) is given as “very good”. In data set [3], the “Weight gain of moisture absorption (%)” value was 1.34%. In addition, in data set [3], the hygroscopicity judgment entry is “slightly hygroscopicity”.
Consider `COC(=O)C1=C(CN2CCN3C(=O)N(c4ccc(CCC(=O)O)cc4F)C[C@@H]3C2)NC(c2nccs2)=N[C@H]1c1ccc(F)cc1Cl` [Compound having Formula (I), 3-(4-((S)-7-(((R)-6-(2-chloro-4-fluorophenyl)-5-(methoxycarbonyl)-2-(thiazol-2-yl)-3,6-dihydropyrimidin-4-yl)methyl)-3-oxohexahydroimidazo[1,5-a]pyrazine-2(3H)-yl)-3-fluorophenyl)propionic acid], for which the “HBV inhibitory activity (in words)” value in the data set with HBV is “good HBV inhibitory activity”. Moreover, in data set [1] (dog, blood, read-out: AUC0-t), the AUC0-t worked out at 6340 ng·h/mL. Further, in data set [1] (dog, blood, read-out: Cmax), the Cmax was determined as 3720 ng/mL. Besides, the “absorption in the body / in animals (in words)” value in data set [1] (dog) is given as “unsatisfactory”. Besides, the “Purity (%)” value in data set [2] (0 days) was 98.61%; in data set [2] (setting [4]), 98.66%; in data set [2] (setting [5]), 98.75%; in data set [2] (setting [6]), 95.40%; in data set [2] (setting [7]) it was 94.07%; in data set [2] (setting [8]) it was 98.66%. The “Purity (%)” value in data set [2] (setting [9]) came to 98.20%. For the same molecule, the “stability under high temperature (in words)” value in data set [2] (high temperature (such as 60° C.)) is recorded as “unstable”.
